What was measured:
[1] = tested on: patients with macular degeneration; experiment: Macular degeneration clinical study (adjuvant to verteporfin photodynamic therapy); assay type: in vivo; conditions: about 300 mg/day for 20 weeks as adjuvant to verteporfin photodynamic therapy
Procedure: Forty patients with macular degeneration are divided into two groups. The first group receives conventional treatment for closing the leaking choroidal vessels (characteristic of this disease) by photodynamic therapy with verteporfin (see for example Ophthalmol. 117:1329-1345 (1999). The second group receives the same conventional therapy with verteporfin with 1-(5-(1H-1,2,4-triazol-5-yl)(1H-indazol-3-yl))-3-(2-piperidylethoxy)benzene at about 300 mg/day as an adjuvant for 20 weeks.
The first group, without 1-(5-(1H 1,2,4-triazol-5-yl)( 1 H-indazol-3-yl))-3-(2-piperidylethoxy)benzene, however will experience progressive reperfusion of the ablated vessels several weeks after treatment. Progressive visual loss follows which requires the photodynamic therapy to be repeated.

[2] = Solubility in aqueous media; assay type: physicochemical
[3] = tested on: rat ventral mesencephalan neurons; experiment: [3H]Dopamine cell culture assay (6-OHDA neurotoxicity); assay type: cell-based; conditions: 6-OHDA 30 μM, uptake 22 hours later
Procedure: Cultures of dopaminergic neurons were prepared according to a modification of the procedure described by Raymon and Leslie (J. Neurochem. 62:1015-1024, 1994). Time-mated pregnant rats were sacrificed on embyronic day 14-15 (crown rump length 11-12 mm) and the embryos removed by cesarean section. The ventral mesencephalon, containing the dopaminergic neurons, was dissected from each embryo. Tissue pieces from approximately 48 embryos were pooled and dissociated both enzymatically and mechanically. An aliquot from the resulting cell suspension was counted and the cells were plated in high glucose DMEM/F12 culture medium with 10% fetal bovine serum at a density of 1×10^5 cells/well of a Biocoat poly-D-lysine-coated 96-well plate. The day following plating was considered 1 day in vitro (DIV). Cells were maintained in a stable environment at 37° C., 95% humidity, and 5% CO2. A partial medium change was performed at 3 DIV. […]
[^3H]Dopamine uptake is used as a measure of the health and integrity of dopaminergic neurons in culture (Prochiantz et al., PNAS 76: 5387-5391, 1979). […] Briefly, cells treated with 6-OHDA in the presence and absence of 5-amino-anthra(9, 1-cd)isothiazol-6-one were assessed in the uptake assay 22 hrs after exposure to 6-OHDA. […] Radioactivity was removed and the cultures were washed 3x with ice cold PBS. […]

[4] = Brain-blood plasma distribution in vivo; parameters: species or system Sprague-Dawley rats; conditions: rat, 10 mg/kg intravenously, 2 hr post-dose
Procedure: 5-Amino-anthra(9,1-cd)isothiazol-6-one was administered intravenously (10 mg/kg) into the veins of Sprague-Dawley rats. After 2 hr, blood samples were obtained from the animals and their vascular systems were perfused with approximately 100 mL of saline to rid their brains of blood. The brains were removed from the animals, weighed, and homogenized in a 50 mL conical tube containing 10 equivalents (w/v) of methanol/saline (1:1) using a Tissue Tearer (Fischer Scientific). The homogenized material was extracted by adding 600 μL of cold methanol to 250 μL of brain homogenate vortexed for 30 sec and subjected to centrifugation for 5 min. After centrifugation, 600 μL of the resulting supernatant was transferred to a clean tube and evaporated at room temperature under reduced pressure to provide a pellet. […] The brain homogenate analysis samples, plasma analysis samples, and standard analysis samples were analyzed and compared using HPLC by injecting 100 μL of a sample onto a 5 μm C-18 Luna column (4.6 mm×150 mm, commercially available from Phenomenex of Torrance, Calif.) and eluting at 1 mL/min with a linear gradient of 30% aqueous acetonitrile containing 0.1% trifluoroacetic acid to 90% aqueous acetonitrile containing 0.1% trifluoroacetic acid over 8 minutes and holding at 90% aqueous acetonitrile containing 0.1 % trifluoroacetic acid for 3 min. with absorbance detection at 450 nm. […]

| solubility in aqueous media [2] | brain-drug concentration [4] | SMILES | effect on neovascular cascade / duration of photodynamic therapy effect [1] | protection of dopaminergic neurons from 6-OHDA ([3H]dopamine uptake) [3] |
| --- | --- | --- | --- | --- |
|  |  | c1cc(OCCC2CCCCN2)cc(-c2n[nH]c3ccc(-c4ncn[nH]4)cc23)c1 (stereo not shown) [1-(5-(1H-1,2,4-triazol-5-yl)(1H-indazol-3-yl))-3-(2-piperidylethoxy)benzene] | neovascular cascade is sufficiently hindered |  |
| limited solubility | approximately 65 nmole/g | Nc1ccc2snc3c2c1C(=O)c1ccccc1-3 [5-amino-anthra(9,1-cd)isothiazol-6-one] |  | protects rat ventral mesencephalan neurons from the toxic effects of 6-OHDA |

From US20040092568A1, “Methods for the treatment, prevention and management of macular degeneration” (priority 2002, published 2004)
